Converted amounts (≈) assume the structure as drawn. Read-outs that look alike come from different tables or passages of the source.
Experiments:
E. coli GC 6465 = test: MIC, broth microdilution; details: Escherichia coli, GC6465, E. coli GC 6465
S. aureus GC 4536 = test: MIC, broth microdilution; details: Staphylococcus aureus, GC4536, S. aureus GC 4536
E. coli GC 2203 = test: MIC, broth microdilution; details: Escherichia coli, GC2203, E. coli GC 2203
S. aureus GC 6469 = test: MIC, broth microdilution; details: Staphylococcus aureus, GC6469, S. aureus GC 6469
Procedure: (§1) Antimicrobial susceptibility testing. The in vitro activities of the antibiotics are determined by the broth microdilution method as recommended by the National Committee for Clinical Laboratory Standards (NCCLS) (1). Mueller-Hinton II broth (MHBII)(BBL Cockeysville, Md.) is the medium employed in the testing procedures. Microtiter plates containing serial dilutions of each antimicrobial agent are inoculated with each organism to yield the appropriate density (10^5 CFU/ml) in a 100 μl final volume. The plates are incubated for 18-22 hours at 35° C. in ambient air.
(§2) Representative compounds were first incubated in mouse serum for an hour prior to the in vitro testing against a panel of selected gram-positive and gram-negative bacteria strains. All compounds were also pre-incubated in water for an hour prior to testing as control.

Staph. = test: Range of MIC for Staph. strains, including MRSA; details: Staphylococcus aureus, MRSA
E. faecalis GC 2242 = test: MIC, broth microdilution; details: Enterococcus faecalis, GC2242, E. faecalis GC 2242
E. coli GC 2235 = test: MIC, broth microdilution; details: Escherichia coli, GC2235, E. coli GC 2235
E. coli = test: Range of MIC for E. coli strains; details: Escherichia coli
E. coli GC 2270 = test: MIC, broth microdilution; details: Escherichia coli, GC2270, E. coli GC 2270
E. coli GC 2271 = test: MIC, broth microdilution; details: Escherichia coli, GC2271, E. coli GC 2271
P. aeruginosa GC 2214 = test: MIC, broth microdilution; details: Pseudomonas aeruginosa, GC2214, P. aeruginosa GC 2214
E. faecalis GC 2265 = test: MIC, broth microdilution; details: Enterococcus faecalis, GC2265, E. faecalis GC 2265
Procedure: as §1, §2

E. faecalis GC 4555 = test: MIC, broth microdilution; details: Enterococcus faecalis, GC4555, E. faecalis GC 4555
E. coli GC 2233 = test: MIC, broth microdilution; details: Escherichia coli, GC2233, E. coli GC 2233
E. coli GC 4560 = test: MIC, broth microdilution; details: Escherichia coli, GC4560, E. coli GC 4560
E. coli GC 2236 = test: MIC, broth microdilution; details: Escherichia coli, GC2236, E. coli GC 2236
S. aureus GC 6467 = test: MIC, broth microdilution; details: Staphylococcus aureus, GC6467, S. aureus GC 6467
E. coli GC 4559 = test: MIC, broth microdilution; details: Escherichia coli, GC4559, E. coli GC 4559
Procedure: as §1
Representative compounds were first incubated in mouse serum for an hour prior to the in vitro testing against a panel of selected gram-positive and gram-negative bacteria strains. All compounds were also pre-incubated in water for an hour prior to testing as control. Representative compounds of Formula I were incubated in human serum prior to MIC determination.

E. coli GC 1073 = test: MIC, broth microdilution; details: Escherichia coli, GC1073, E. coli GC 1073
S. agalactiae GC 4564 = test: MIC, broth microdilution; details: Streptococcus agalactiae, GC4564, S. agalactiae GC 4564
[1] = read-out: Range of MIC, Staph (Mouse Serum)
[2] = read-out: Range of MIC, Staph (Water)
[3] = read-out: Range of MIC, Staph. (mouse serum)
[4] = read-out: Range of MIC, Staph. (water)
[5] = 20 h, read-out: Range of MIC, E. coli (Mouse Serum)
[6] = read-out: Range of MIC, E. coli (mouse serum)

CCCN(CC(=O)Nc1cc(N(C)C)c2c(c1O)C(=O)C1=C(O)[C@]3(O)C(=O)C(C(N)=O)=C(O)[C@@H](N(C)C)[C@@H]3C[C@@H]1C2)C(=O)OCOC(=O)C1CCC1 [Example 7, ({[(2-{[(5aR,6aS,7S,10aS)-9-(aminocarbonyl)-4,7-bis(dimethylamino)-1,8,10a,11-tetrahydroxy-10,12-dioxo-5,5a,6,6a,7,10,10a,12-octahydrotetracen-2-yl]amino}-2-oxoethyl)(propyl)amino]carbonyl}oxy)methyl cyclobutanecarboxylate]
MIC (E. coli GC 6465; Mouse Serum pre-incubation): 16 µg/mL (≈ 22 µM)
MIC (E. coli GC 6465; Water pre-incubation): > 64 µg/mL
MIC (S. aureus GC 4536; Mouse Serum pre-incubation): 1 µg/mL (≈ 1.37 µM)
MIC (S. aureus GC 4536; Water pre-incubation): 1 µg/mL (≈ 1.37 µM)
MIC (E. coli GC 2203; Mouse Serum pre-incubation): 0.5 µg/mL (≈ 0.687 µM)
MIC (E. coli GC 2203; Water pre-incubation): 4 µg/mL (≈ 5.5 µM)
MIC (S. aureus GC 6469; Mouse Serum pre-incubation): 2 µg/mL (≈ 2.75 µM)
MIC (S. aureus GC 6469; Water pre-incubation): 4 µg/mL (≈ 5.5 µM)
MIC (Staph.; [1]): 0.5 to 4 µg/mL (≈ 0.687 to 5.5 µM)
MIC (Staph.; [2]): 0.5 to 4 µg/mL (≈ 0.687 to 5.5 µM)
MIC (Staph.; [3]): 0.5 to 4 µg/mL (≈ 0.687 to 5.5 µM)
MIC (Staph.; [4]): 0.5 to 4 µg/mL (≈ 0.687 to 5.5 µM)
MIC (E. faecalis GC 2242; Mouse Serum pre-incubation): 1 µg/mL (≈ 1.37 µM)
MIC (E. faecalis GC 2242; Water pre-incubation): 1 µg/mL (≈ 1.37 µM)
MIC (E. coli GC 2235; Mouse Serum pre-incubation): 0.5 µg/mL (≈ 0.687 µM)
MIC (E. coli GC 2235; Water pre-incubation): 4 µg/mL (≈ 5.5 µM)
MIC (E. coli; [5]): 0.25 to 2 µg/mL (≈ 0.344 to 2.75 µM)
MIC (E. coli; read-out: Range of MIC, E. coli (Water)): 2 to 16 µg/mL (≈ 2.75 to 22 µM)
MIC (E. coli; [6]): 0.25 to 2 µg/mL (≈ 0.344 to 2.75 µM)
MIC (E. coli; read-out: Range of MIC, E. coli (water)): 2 to 16 µg/mL (≈ 2.75 to 22 µM)
MIC (E. coli GC 2270; Mouse Serum pre-incubation): 0.5 µg/mL (≈ 0.687 µM)
MIC (E. coli GC 2270; Water pre-incubation): 4 µg/mL (≈ 5.5 µM)
MIC (E. coli GC 2271; Mouse Serum pre-incubation): 0.5 µg/mL (≈ 0.687 µM)
MIC (E. coli GC 2271; Water pre-incubation): 4 µg/mL (≈ 5.5 µM)
MIC (P. aeruginosa GC 2214; Mouse Serum pre-incubation): 16 µg/mL (≈ 22 µM)
MIC (P. aeruginosa GC 2214; Water pre-incubation): > 64 µg/mL
MIC (E. faecalis GC 2265; Mouse Serum pre-incubation): 1 µg/mL (≈ 1.37 µM)
MIC (E. faecalis GC 2265; Water pre-incubation): 2 µg/mL (≈ 2.75 µM)
MIC (E. faecalis GC 4555; Mouse Serum pre-incubation): 0.5 µg/mL (≈ 0.687 µM)
MIC (E. faecalis GC 4555; Water pre-incubation): 1 µg/mL (≈ 1.37 µM)
MIC (E. coli GC 2233; Mouse Serum pre-incubation): 0.5 µg/mL (≈ 0.687 µM)
MIC (E. coli GC 2233; Water pre-incubation): 4 µg/mL (≈ 5.5 µM)
MIC (E. coli GC 4560; Mouse Serum pre-incubation): 0.25 µg/mL (≈ 0.344 µM)
MIC (E. coli GC 4560; Water pre-incubation): 0.5 µg/mL (≈ 0.687 µM)
MIC (E. coli GC 2236; Mouse Serum pre-incubation): 0.25 µg/mL (≈ 0.344 µM)
MIC (E. coli GC 2236; Water pre-incubation): 2 µg/mL (≈ 2.75 µM)
MIC (S. aureus GC 6467; Mouse Serum pre-incubation): 4 µg/mL (≈ 5.5 µM)
MIC (S. aureus GC 6467; Water pre-incubation): 4 µg/mL (≈ 5.5 µM)
MIC (E. coli GC 4559; Mouse Serum pre-incubation): 1 µg/mL (≈ 1.37 µM)
MIC (E. coli GC 4559; Water pre-incubation): 8 µg/mL (≈ 11 µM)
MIC (E. coli GC 1073; Mouse Serum pre-incubation): 0.5 µg/mL (≈ 0.687 µM)
MIC (E. coli GC 1073; Water pre-incubation): 8 µg/mL (≈ 11 µM)
MIC (S. agalactiae GC 4564; Mouse Serum pre-incubation): 0.25 µg/mL (≈ 0.344 µM)
MIC (S. agalactiae GC 4564; Water pre-incubation): 0.5 µg/mL (≈ 0.687 µM)

CCCN(CC(=O)Nc1cc(N(C)C)c2c(c1O)C(=O)C1=C(O)[C@]3(O)C(=O)C(C(N)=O)=C(O)[C@@H](N(C)C)[C@@H]3C[C@@H]1C2)C(=O)OCOC(=O)c1ccc(F)cc1 [Example 8, ({[(2-{[(5aR,6aS,7S,10aS)-9-(aminocarbonyl)-4,7-bis(dimethylamino)-1,8,10a,11-tetrahydroxy-10,12-dioxo-5,5a,6,6a,7,10,10a,12-octahydrotetracen-2-yl]amino}-2-oxoethyl)(propyl)amino]carbonyl}oxy)methyl 4-fluorobenzoate]
MIC (E. coli GC 6465; Mouse Serum pre-incubation): 8 µg/mL (≈ 10.4 µM)
MIC (E. coli GC 6465; Water pre-incubation): > 64 µg/mL
MIC (S. aureus GC 4536; Mouse Serum pre-incubation): 0.5 µg/mL (≈ 0.651 µM)
MIC (S. aureus GC 4536; Water pre-incubation): 2 µg/mL (≈ 2.6 µM)
MIC (E. coli GC 2203; Mouse Serum pre-incubation): 1 µg/mL (≈ 1.3 µM)
MIC (E. coli GC 2203; Water pre-incubation): 32 µg/mL (≈ 41.7 µM)
MIC (S. aureus GC 6469; Mouse Serum pre-incubation): 2 µg/mL (≈ 2.6 µM)
MIC (S. aureus GC 6469; Water pre-incubation): 8 µg/mL (≈ 10.4 µM)
MIC (Staph.; [1]): 0.5 to 4 µg/mL (≈ 0.651 to 5.21 µM)
MIC (Staph.; [2]): 1 to 8 µg/mL (≈ 1.3 to 10.4 µM)
MIC (Staph.; [3]): 0.5 to 4 µg/mL (≈ 0.651 to 5.21 µM)
MIC (Staph.; [4]): 1 to 8 µg/mL (≈ 1.3 to 10.4 µM)
MIC (E. faecalis GC 2242; Mouse Serum pre-incubation): 1 µg/mL (≈ 1.3 µM)
MIC (E. faecalis GC 2242; Water pre-incubation): 4 µg/mL (≈ 5.21 µM)
MIC (E. coli GC 2235; Mouse Serum pre-incubation): 1 µg/mL (≈ 1.3 µM)
MIC (E. coli GC 2235; Water pre-incubation): 16 µg/mL (≈ 20.8 µM)
MIC (E. coli; [5]): 1 to 2 µg/mL (≈ 1.3 to 2.6 µM)
MIC (E. coli; [6]): 1 to 2 µg/mL (≈ 1.3 to 2.6 µM)
MIC (E. coli GC 2270; Mouse Serum pre-incubation): 1 µg/mL (≈ 1.3 µM)
MIC (E. coli GC 2270; Water pre-incubation): 64 µg/mL (≈ 83.4 µM)
MIC (E. coli GC 2271; Mouse Serum pre-incubation): 1 µg/mL (≈ 1.3 µM)
MIC (E. coli GC 2271; Water pre-incubation): 32 µg/mL (≈ 41.7 µM)
MIC (P. aeruginosa GC 2214; Mouse Serum pre-incubation): 32 µg/mL (≈ 41.7 µM)
MIC (P. aeruginosa GC 2214; Water pre-incubation): > 64 µg/mL
MIC (E. faecalis GC 2265; Mouse Serum pre-incubation): 2 µg/mL (≈ 2.6 µM)
MIC (E. faecalis GC 2265; Water pre-incubation): 8 µg/mL (≈ 10.4 µM)
MIC (E. faecalis GC 4555; Mouse Serum pre-incubation): 0.5 µg/mL (≈ 0.651 µM)
MIC (E. faecalis GC 4555; Water pre-incubation): 8 µg/mL (≈ 10.4 µM)
MIC (E. coli GC 2233; Mouse Serum pre-incubation): 1 µg/mL (≈ 1.3 µM)
MIC (E. coli GC 2233; Water pre-incubation): 32 µg/mL (≈ 41.7 µM)
MIC (E. coli GC 4560; Mouse Serum pre-incubation): 0.5 µg/mL (≈ 0.651 µM)
MIC (E. coli GC 4560; Water pre-incubation): 4 µg/mL (≈ 5.21 µM)
MIC (E. coli GC 2236; Mouse Serum pre-incubation): 1 µg/mL (≈ 1.3 µM)
MIC (E. coli GC 2236; Water pre-incubation): 32 µg/mL (≈ 41.7 µM)
MIC (S. aureus GC 6467; Mouse Serum pre-incubation): 4 µg/mL (≈ 5.21 µM)
MIC (S. aureus GC 6467; Water pre-incubation): 8 µg/mL (≈ 10.4 µM)
MIC (E. coli GC 4559; Mouse Serum pre-incubation): 1 µg/mL (≈ 1.3 µM)
MIC (E. coli GC 4559; Water pre-incubation): 64 µg/mL (≈ 83.4 µM)
MIC (E. coli GC 1073; Mouse Serum pre-incubation): 1 µg/mL (≈ 1.3 µM)
MIC (E. coli GC 1073; Water pre-incubation): 32 µg/mL (≈ 41.7 µM)
MIC (S. agalactiae GC 4564; Mouse Serum pre-incubation): 0.25 µg/mL (≈ 0.326 µM)
MIC (S. agalactiae GC 4564; Water pre-incubation): 0.5 µg/mL (≈ 0.651 µM)

— patent US20070049564A1 (Wyeth, priority 2005, published 2007)
